The C3SDB collision cross section collection
Values joined by “and” are separate entries in the source; they are usually repeats but may differ in a detail not shown here. Identical values can stand only once.

What was measured:
[1] = [M+H]+; instrument: TW
[2] = instrument: DT, single field, calibrated with Agilent tune mix (Agilent)
[3] = instrument: DT, single field
[4] = [M+NH4]+; instrument: DT; single field, calibrated with Agilent tune mix (Agilent)
[5] = [M+Na]+; instrument: DT; stepped-field

## C[C@]12CCC(=O)C=C1CC[C@@H]1[C@@H]2C(=O)C[C@@]2(C)[C@H]1CC[C@]2(O)C(=O)CO [Cortisone]
[1]
  collision cross section (N2): 184 Å²
[2]; [M+H]+
  collision cross section (N2): 188.6 Å²
[2]; [M-H2O-H]-
  collision cross section (N2): 180.07 Å²

## CCCCC/C=C\C/C=C\CCCCCCCC(=O)O[C@@H](CO)COC(=O)CCCCCCCCCCCC [DG(31:2)]
[3]; [M+NH4]+
  collision cross section (N2): 249.72 Å²

## CCCCCCCC/C=C\CCCCCCCCCC(=O)O[C@@H](CO)COC(=O)CCCCCCCCCCC [DG(32:1)]
[3]; [M+NH4]+
  collision cross section (N2): 255.8 Å²

## CCCC/C=C\C/C=C\CCCCCCCC(=O)O[C@@H](CO)COC(=O)CCCCCCCCCCCCCCCC [DG(34:2)]
[3]; [M+NH4]+
  collision cross section (N2): 257.59 Å² and 259.54 Å²
[4]
  collision cross section (N2): 257.9 Å²

## CCCCC/C=C\C/C=C\C/C=C\CCCCCCCCC(=O)O[C@@H](CO)COC(=O)CCCCCCCCCCCCC [DG(36:3)]
[3]; [M+NH4]+
  collision cross section (N2): 261.08 Å²

## CCCCC/C=C\C/C=C\C/C=C\CCCCC(=O)OC[C@H](CO)OC(=O)CCCCCCC/C=C\CCCCCCCC [DG(36:4)]
[3]; [M+NH4]+
  collision cross section (N2): 257.21 Å²

## CCCC/C=C\CCCCCCCC(=O)OC[C@H](CO)OC(=O)CCCCC/C=C\C/C=C\C/C=C\C/C=C\CCCCC [DG(36:5)]
[3]; [M+NH4]+
  collision cross section (N2): 254.91 Å²

## CCCCC/C=C\C/C=C\C/C=C\C/C=C\CCCC(=O)O[C@@H](CO)COC(=O)CCCC/C=C\C/C=C\C/C=C\CCCCC [DG(38:7)]
[3]; [M+NH4]+
  collision cross section (N2): 259.31 Å²

## CC/C=C\C/C=C\C/C=C\C/C=C\C/C=C\CCCCCC(=O)O[C@@H](CO)COC(=O)CCCC/C=C\C/C=C\C/C=C\CCCCC [DG(40:8)]
[3]; [M+NH4]+
  collision cross section (N2): 266.74 Å²

## Ic2ccc1\N=C(\OCCC)N(C(=O)c1c2)CCC [Proquinazid]
[1]
  collision cross section (N2): 169.35 Å²

## Cc1cc(C)nc(Nc2ccccc2)n1 [Pyrimethanil]
[1]
  collision cross section (N2): 142.95 Å²

## CCOP(=S)(OCC)Oc1cnc2ccccc2n1 [Quinalphos]
[1]
  collision cross section (N2): 165.1 Å²

## CC(CCc1ccc(O)cc1)NCC(O)c1ccc(O)cc1 (stereo not drawn) [Ractopamine]
[1]
  collision cross section (N2): 168.9 Å²

## C[C@H](NCCc1ccc(O)cc1)[C@H](O)c1ccc(O)cc1 [Ritodrine]
[1]
  collision cross section (N2): 165.8 Å²

## Cn1c([N+](=O)[O-])cnc1COC(N)=O [Ronidazole]
[1]
  collision cross section (N2): 131.6 Å²

## C=C(C)C1Cc2c(ccc3c2OC2COc4cc(OC)c(OC)cc4C2C3=O)O1 (stereo not drawn) [Rotenone]
[1]
  collision cross section (N2): 195.01 Å²

## CCCCCCCCCCCCC=CCC=CCC=CCC=CCC(=O)N[C@@H](COP(=O)([O-])OCC[N+](C)(C)C)[C@H](O)CC=CCCCCCCCCCCCC [SM(43:5)]
[3]; [M+H]+
  collision cross section (N2): 301.97 Å²

## CC(C)(C)NCC(O)c1ccc(O)c(CO)c1 (stereo not drawn) [Salbutamol]
[1]
  collision cross section (N2): 158.3 Å²

## CCOC(=O)OC1=C(c2cc(C)ccc2C)C(=O)NC12CCC(OC)CC2 (stereo not drawn) [Spirotetramat]
[1]
  collision cross section (N2): 189.99 Å²

## C=C1C[C@@]23CC[C@H]4[C@@](C)(CCC[C@@]4(C)C(=O)O)[C@@H]2CC[C@]1(O)C3 [Steviol]
[1]
  collision cross section (N2): 173.38 Å²

## Nc1ccc(S(=O)(=O)Nc2ccc(Cl)nn2)cc1 [Sulfachloropyridazine]
[1]
  collision cross section (N2): 156.9 Å²

## Nc1ccc(S(=O)(=O)Nc2ncccn2)cc1 [Sulfadiazine]
[1]
  collision cross section (N2): 148.7 Å²

## Cc1cc(C)nc(NS(=O)(=O)c2ccc(N)cc2)n1 [Sulfadimidine]
[1]
  collision cross section (N2): 159.7 Å²

## COc1ncnc(NS(=O)(=O)c2ccc(N)cc2)c1OC [Sulfadoxine]
[1]
  collision cross section (N2): 166.6 Å²

## Cc1nnc(NS(=O)(=O)c2ccc(N)cc2)s1 [Sulfamethizole]
[1]
  collision cross section (N2): 152.2 Å²

## Cc1nn(-c2cc(NS(C)(=O)=O)c(Cl)cc2Cl)c(=O)n1C(F)F [Sulfentrazone]
[1]
  collision cross section (N2): 173.63 Å²

## Cc1noc(NS(=O)(=O)c2ccc(N)cc2)c1C [Sulfisoxazole]
[1]
  collision cross section (N2): 157.4 Å²

## CCCCCC/C=C\CCCCCCCC(=O)OC[C@@H](COC(=O)CCCCCCCCCCC)OC(=O)CCCCCCCCCCC [TG(40:1)]
[3]; [M+NH4]+
  collision cross section (N2): 282.64 Å² and 284.9 Å²
[3]; [M+Na]+
  collision cross section (N2): 280.45 Å² and 283.77 Å²

## CCCCCCCC/C=C\CCCCCCCC(=O)OC[C@@H](COC(=O)CCCCCCCCCCC)OC(=O)CCCCCCCCCCC [TG(42:1)]
[3]; [M+NH4]+
  collision cross section (N2): 289.72 Å² and 292.07 Å² and 292.03 Å²
[3]; [M+Na]+
  collision cross section (N2): 288.53 Å² and 291.03 Å²
[4]
  collision cross section (N2): 288.5 Å²

## CCCCCCCCCC/C=C\CCCCCCCCCC(=O)OC[C@@H](COC(=O)CCCCCCCCCCC)OC(=O)CCCCCCCCCCC [TG(46:1)]
[3]; [M+Na]+
  collision cross section (N2): 302.27 Å² and 304.44 Å²

## CCCCCCC/C=C\CCCCCCCC(=O)OC[C@@H](COC(=O)CCCCCCCCCCC)OC(=O)CCCCCCC/C=C\CCCCCCC [TG(46:2)]
[3]; [M+NH4]+
  collision cross section (N2): 300.67 Å² and 303.01 Å²
[3]; [M+Na]+
  collision cross section (N2): 299.74 Å² and 302.02 Å²
[4]
  collision cross section (N2): 300.4 Å²

## CCCCCCCCCC/C=C\CCCCCCCCCC(=O)OC[C@@H](COC(=O)CCCCCCCCCCCC)OC(=O)CCCCCCCCCCCC [TG(48:1)]
[3]; [M+Na]+
  collision cross section (N2): 308.88 Å² and 310.77 Å²
[4]
  collision cross section (N2): 310.9 Å²

## CCCCC/C=C\CCCCCCCC(=O)OC[C@H](COC(=O)CCCCCCC/C=C\CCCCCCCCC)OC(=O)CCCCCCC/C=C\CCCCC [TG(49:3)]
[3]; [M+NH4]+
  collision cross section (N2): 308.33 Å² and 309.79 Å² and 313.23 Å²
[3]; [M+Na]+
  collision cross section (N2): 308.93 Å²
[4]
  collision cross section (N2): 307.8 Å²

## CCCCCCCCCC/C=C\CCCCCCCCCC(=O)OC[C@@H](COC(=O)CCCCCCCCCCCCC)OC(=O)CCCCCCCCCCCCC [TG(50:1)]
[3]; [M+Na]+
  collision cross section (N2): 315.05 Å² and 316.8 Å²

## CCCCCCCCC/C=C\CCCCCCCC(=O)OC[C@@H](COC(=O)CCCCCCCCCCCCCCC)OC(=O)CCCCCCCCCCCCCCC [TG(51:1)]
[3]; [M+Na]+
  collision cross section (N2): 317.97 Å² and 320.06 Å²

## CCCCCCCCCCCCCCCCCCCC(=O)OC[C@@H](COC(=O)CCCCCCCCCCC)OC(=O)CCCCCCCCCCCCCCCCCCC [TG(52:0)]
[3]; [M+NH4]+
  collision cross section (N2): 323.2 Å² and 325.31 Å²
[3]; [M+Na]+
  collision cross section (N2): 323.38 Å²
[4]
  collision cross section (N2): 323.4 Å²

## CCCC/C=C\CCCCCCCC(=O)OC[C@H](COC(=O)CCCCCCC/C=C\CCCCCCCCC)OC(=O)CCCCCCC/C=C\CCCCCCCCC [TG(52:3)]
[3]; [M+NH4]+
  collision cross section (N2): 318.16 Å² and 320.59 Å² and 322.8 Å²
[3]; [M+Na]+
  collision cross section (N2): 317.01 Å² and 319.26 Å²
[4]
  collision cross section (N2): 320.2 Å²

## CCCCCCCC/C=C\CCCCCCCCCC(=O)OC[C@@H](COC(=O)CCCCCCCCCCCC)OC(=O)CCCCCCCCC/C=C\CCCCCCCC [TG(53:2)]
[3]; [M+Na]+
  collision cross section (N2): 321.52 Å² and 323.87 Å²
[4]
  collision cross section (N2): 323.6 Å²

## CCCCC/C=C\CCCCCCCC(=O)OC[C@H](COC(=O)CCCCCCC/C=C\CCCCCCCCC)OC(=O)CCCCCCC/C=C\CCCCCCCCC [TG(53:3)]
[3]; [M+Na]+
  collision cross section (N2): 319.33 Å² and 321.38 Å²

## CCCCC/C=C\C/C=C\C/C=C\C/C=C\CCCCCC(=O)OC[C@@H](COC(=O)CCCCCCCCCCCCC)OC(=O)CCCCCCC/C=C\CCCCCCC [TG(53:5)]
[3]; [M+NH4]+
  collision cross section (N2): 317.8 Å² and 320.46 Å² and 322.68 Å²
[4]
  collision cross section (N2): 317.4 Å²

## CCCCC/C=C\CCCCCCCC(=O)OC[C@H](COC(=O)CCCCCCCCCCCCCCCCCCC)OC(=O)CCCCCCCCCCCCCCCCCCC [TG(55:1)]
[3]; [M+NH4]+
  collision cross section (N2): 334.9 Å² and 337.31 Å² and 332.94 Å²

## CC/C=C\C/C=C\C/C=C\CCCCCCCC(=O)O[C@@H](COC(=O)CCC/C=C\C/C=C\C/C=C\C/C=C\CCCCC)COC(=O)CCCCCCC/C=C\C/C=C\CCCCC [TG(56:9)]
[3]; [M+NH4]+
  collision cross section (N2): 321.77 Å²

## CCCCCCCCC/C=C\CCCCCCCC(=O)OC[C@@H](COC(=O)CCCCCCCCCCCCCCCCCC)OC(=O)CCCCCCCCCCCCCCCCCC [TG(57:1)]
[3]; [M+NH4]+
  collision cross section (N2): 340.07 Å² and 342.55 Å²

## CCCC/C=C\CCCCCCCC(=O)OC[C@H](COC(=O)CCCCCCCCCCCCCCCCCCCCC)OC(=O)CCCCCCCCCCCCCCCCCCCCC [TG(58:1)]
[3]; [M+NH4]+
  collision cross section (N2): 342.62 Å² and 345.63 Å² and 341.8 Å²

## CCCCC/C=C\C/C=C\C/C=C\CCCCCCCCC(=O)OC[C@@H](COC(=O)CCCCCCCCCCCCCCCCC)OC(=O)CCCCCCC/C=C\CCCCCCCCC [TG(59:4)]
[3]; [M+NH4]+
  collision cross section (N2): 340.53 Å² and 343 Å²

## CCCCC/C=C\C/C=C\C/C=C\C/C=C\CCCC(=O)O[C@@H](COC(=O)CCCCCCCCCCC/C=C\C/C=C\CCCCC)COC(=O)CCCCCCCCCCCCCCCC [TG(59:6)]
[3]; [M+NH4]+
  collision cross section (N2): 339.13 Å²

## CCc1nn(C)c(C(=O)NCc2ccc(C(C)(C)C)cc2)c1Cl [Tebufenpyrad]
[1]
  collision cross section (N2): 191.25 Å²

## CN(C)[C@@H]1C(O)=C(C(N)=O)C(=O)[C@@]2(O)C(O)=C3C(=O)c4c(O)cccc4[C@@](C)(O)[C@H]3C[C@@H]12 [Tetracycline]
[1]
  collision cross section (N2): 197.3 Å²

## c1ccc2[nH]c(-c3cscn3)nc2c1 [Thiabendazole]
[1]
  collision cross section (N2): 136.19 Å²
[5]
  collision cross section (N2): 164.17 Å²

## Cc1c(Cl)cccc1Nc1ccccc1C(=O)O [Tolfenamic acid]
[1]
  collision cross section (N2): 153.7 Å²

## Cc1ccc(C(=O)c2ccc(CC(=O)O)n2C)cc1 [Tolmetin]
[1]
  collision cross section (N2): 156.7 Å²

## COP(=O)(OC)C(O)C(Cl)(Cl)Cl (stereo not drawn) [Trichlorfon]
[1]
  collision cross section (N2): 136.12 Å²

## O=C(NC(=O)c1ccccc1Cl)Nc1ccc(OC(F)(F)F)cc1 [Triflumuron]
[1]
  collision cross section (N2): 169.88 Å²

## CC1(C)CC/C(=C\c2ccc(Cl)cc2)C1(O)Cn1cncn1 (stereo not drawn) [Triticonazole]
[1]
  collision cross section (N2): 179.18 Å²

## CC[C@H]1OC(=O)C[C@@H](O)[C@H](C)[C@@H](O[C@@H]2O[C@H](C)[C@@H](O[C@H]3C[C@@](C)(O)[C@@H](O)[C@H](C)O3)[C@H](N(C)C)[C@H]2O)[C@@H](CC=O)C[C@@H](C)C(=O)/C=C/C(C)=C/[C@@H]1CO[C@@H]1O[C@H](C)[C@@H](O)[C@@H](OC)[C@H]1OC [Tylosine]
[1]
  collision cross section (N2): 332.4 Å²
